The source of these data is patent publication US12692261B2, “Substituted heterocyclic compounds and therapeutic uses thereof” (Bayer Aktiengesellschaft, priority 2020, dated 2026).

In assay [1] the target is T1, full-length human CSNK1D (Homo sapiens, UniProt P48730).
T1 construct: N-terminal Glutathion-S-Transferase (GST) and full-length human CSNK1D; purchased Life Technologies PV3665; host or cells: baculovirus infected insect cells
The assay can be described thus: CSNK1D Assay (ADP-Glo, 1 μM ATP). The format is biochemical. Particulars: Table 3, read-out: CSNK1D IC50 [mol/l] (median). The gist of the method:
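ADP-Glo luminescence reports ADP generated by GST-fused full-length human CSNK1D (insect-cell expressed, about 0.5 ng/μL) acting on a biotinylated peptide at 1 μM ATP. Test compounds were pre-bound to enzyme 15 min at 22° C in 50 mM HEPES pH 7.5.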
(In ADP-Glo the light output rises with the ADP produced.)

In assay [2] the target is T2, full-length human CSNK1A1 (Homo sapiens, UniProt P48729).
T2 construct: N-terminal Glutathion-S-Transferase (GST) and full-length human CSNK1A1; purchased Life Technologies PV4174; host or cells: baculovirus infected insect cells
T2 sequence (P48729 whole entry): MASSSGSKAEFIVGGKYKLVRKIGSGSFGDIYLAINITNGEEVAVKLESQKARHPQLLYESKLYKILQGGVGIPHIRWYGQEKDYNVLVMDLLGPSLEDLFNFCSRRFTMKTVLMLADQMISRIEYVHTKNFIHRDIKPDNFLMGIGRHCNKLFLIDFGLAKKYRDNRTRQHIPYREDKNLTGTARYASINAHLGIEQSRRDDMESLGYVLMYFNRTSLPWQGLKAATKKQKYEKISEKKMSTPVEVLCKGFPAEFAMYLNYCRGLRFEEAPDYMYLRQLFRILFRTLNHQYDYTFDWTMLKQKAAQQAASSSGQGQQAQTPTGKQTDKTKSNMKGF
As to the kind of experiment: CSNK1A1 High ATP Assay (ADP-Glo, 1 mM ATP).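 Further: 30 min kinase reaction at 22 °C with 100 µM peptide substrate.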 The format is biochemical. To be noted: Table 3, read-out: CSNK1A1 high ATP assay IC50 [mol/l] (median). The gist of the method: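 Kinase activity taken as ADP generated, quantified by ADP-Glo luminescence after 1 h ATP depletion and 1 h detection at 22 °C. Enzyme is GST–full-length human CSNK1A1 (insect cell-expressed), pre-bound to compound for 15 min, with phosphopeptide substrate and 1 mM ATP.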

SMILES strings stand for the structures.

T1 sequence (P48730 whole entry): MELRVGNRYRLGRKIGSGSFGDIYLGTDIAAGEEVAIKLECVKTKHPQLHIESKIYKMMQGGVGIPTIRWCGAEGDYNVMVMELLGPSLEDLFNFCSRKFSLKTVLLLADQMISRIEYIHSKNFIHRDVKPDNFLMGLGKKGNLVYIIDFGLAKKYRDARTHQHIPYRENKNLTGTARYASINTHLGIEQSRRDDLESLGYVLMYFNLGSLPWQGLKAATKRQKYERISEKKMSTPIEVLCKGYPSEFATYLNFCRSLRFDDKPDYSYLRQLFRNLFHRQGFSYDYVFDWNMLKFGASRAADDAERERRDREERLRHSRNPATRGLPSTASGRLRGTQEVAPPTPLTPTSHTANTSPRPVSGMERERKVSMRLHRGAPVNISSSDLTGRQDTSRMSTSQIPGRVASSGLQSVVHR

Turning to `O=C(Nc1cc(-c2[nH]c3c(N4CCOCC4)cc(F)nc3c2-c2ccccn2)ccn1)C(CC(F)F)c1ccc(F)cc1` (racemic) [Example 69, (2RS)-4,4-difluoro-N-{4-[5-fluoro-7-(morpholin-4-yl)-3-(pyridin-2-yl)-1H-pyrrolo[3,2-b]pyridin-2-yl]pyridin-2-yl}-2-(4-fluorophenyl)butanamide], the IC50 in assay [1] is 9.76 nM; in assay [2] it was 10.4 nM.
As to `O=C(Nc1cc(-c2[nH]c3c(O[C@H]4CCOC4)cc(F)nc3c2-c2ccccn2)ccn1)C(CC(F)F)c1ccc(F)cc1` (mixture of isomers) [Example 53, (2RS)-4,4-difluoro-N-{4-[5-fluoro-7-{[(3S)-oxolan-3-yl]oxy}-3-(pyridin-2-yl)-1H-pyrrolo[3,2-b]pyridin-2-yl]pyridin-2-yl}-2-(4-fluorophenyl)butanamide], the results for the IC50 in assay [1] and in assay [2] were 7.31 nM and 6 nM, respectively.
As to `O=C(Nc1cc(-c2[nH]c3c(OC[C@@H]4COCCO4)cc(F)nc3c2-c2ccccn2)ccn1)C(CC(F)F)c1ccc(F)cc1` (single isomer, unassigned) [Example 59, (2R or S)—N-{4-[7-{[(2S)-1,4-dioxan-2-yl]methoxy}-5-fluoro-3-(pyridin-2-yl)-1H-pyrrolo[3,2-b]pyridin-2-yl]pyridin-2-yl}-4,4-difluoro-2-(4-fluorophenyl)butanamide], the IC50 in assay [1] stood at 19.6 nM; in assay [2] it was 12.7 nM.
With `O=C(Nc1cc(-c2[nH]c3ccnnc3c2-c2ccccn2)ccn1)C(CC(F)F)c1ccc(F)cc1` (single isomer, unassigned) [Example 66, (2R or 2S)-4,4-difluoro-2-(4-fluorophenyl)-N-{4-[7-(pyridin-2-yl)-5H-pyrrolo[3,2-c]pyridazin-6-yl]pyridin-2-yl}butanamide], the IC50 amounted to 4.59 nM in assay [1] and 2.43 nM in assay [2].
For `O=C(Nc1cc(-c2[nH]c3c(OC[C@H]4COCCO4)cc(F)nc3c2-c2ccccn2)ccn1)C(CC(F)F)c1ccc(F)cc1` (single isomer, unassigned) [Example 51, (2R or S)—N-{4-[7-{[(2R)-1,4-dioxan-2-yl]methoxy}-5-fluoro-3-(pyridin-2-yl)-1H-pyrrolo[3,2-b]pyridin-2-yl]pyridin-2-yl}-4,4-difluoro-2-(4-fluorophenyl)butanamide], in that order: 4.1 nM and 4.65 nM.
`CN1CCN(c2cc(F)nc3c(-c4ccccn4)c(-c4ccnc(NC(=O)C(CC(F)F)c5ccc(F)cc5)c4)[nH]c23)CC1` (racemic) [Example 56, (2RS)-4,4-difluoro-N-{4-[5-fluoro-7-(4-methylpiperazin-1-yl)-3-(pyridin-2-yl)-1H-pyrrolo[3,2-b]pyridin-2-yl]pyridin-2-yl}-2-(4-fluorophenyl)butanamide]: the IC50 in assay [1] came out at 6.67 nM; in assay [2], 3.19 nM.
For `O=C(Nc1cc(-c2[nH]c3cc(F)cnc3c2-c2ccccn2)ccn1)C(CO)c1ccc(F)cc1` (racemic) [Example 71, (2RS)—N-(4-(6-fluoro-3-(pyridin-2-yl)-1H-pyrrolo[3,2-b]pyridin-2-yl)pyridin-2-yl)-2-(4-fluorophenyl)-3-hydroxypropanamide], in that order: 12.8 nM and 8.21 nM.
